Assay results from patent US11632953B2, “Method for controlling hematophagous or sap-feeding arthropods” (Board of Supervisors of Louisiana State University and …, priority 2016, dated 2023).
“Also recorded” adds a separate entry of the source.

Assays:
Kir1.1 = Kir1.1 (Homo sapiens (Human), UniProt P48048); assay: thallium (Tl+) flux assay; assay type: cell-based, mammalian
[1] = system: honey bees (Apis mellifera); assay: acute topical toxicity in adult honey bees; assay type: in vivo; conditions: 48 h, VU041 1 mg/bee (~10 μg/mg), bifenthrin 0.1 μg/bee
Procedure: Frames of late-stage honeybee (A. mellifera) pupae were taken from four colonies at The Ohio State University Honey Bee Lab in Wooster, Ohio, and maintained in a dark humid incubator at 34° C. (Darwin Chambers Co., St. Louis, Mo., model H024) until adult bees emerged. New adults were brushed from frames daily, placed in wooden screen cages (21×14×12 cm), and provided with 1:1 (w/w) sucrose in water.
Acute toxicity experiments in adult bees were performed as follows: Twenty-four hours after emergence, adult honey bees in cages were anaesthetized with carbon dioxide, divided into groups of approximately 20 bees each, and placed in plastic-coated paper cups (177 cm^3; UNIQ Paper Yogurt Cup, Frozen Dessert Supplies, Gilbert, Ariz.) covered with cotton cheesecloth. […] As a positive control, some bees were treated with 3 μl of bifenthrin (0.1 μg/μl). Negative control bees were treated with 3 μl of solvent. Applications were made using a 20 μl micropipette (Fisherbrand Finnpipette F2, Fisher Scientific, Pittsburgh, Pa.) with a disposable plastic tip. […] Toxicity to honey bees was recorded at 48 h, rather than the 24 h used for mosquitoes, to allow for the possibility of delayed toxicity due to the larger body size of the bee. Bees showing no movement 48 h after treatment were scored as dead.

mosquitoes = assay: topical toxicity to mosquitoes (species not specified); assay type: in vivo; conditions: dose of 10 μg per mg; within 24 h
Ae. aegypti [2] = assay: mosquito fecundity, eggs laid; assay type: in vivo, Aedes aegypti; conditions: 72 h post blood feeding; 3.4 μg/mg mosquito
Procedure: The mosquitoes were returned to rearing conditions for 24 h, after which they were transferred to individual egg-laying glass tubes 21 mm×70 mm (Fisher Scientific, Pittsburgh, Pa.) with a piece of coffee filter ([…] USA, Clearwater, Fla.) cut to fit the bottom of the tube. The filter was wetted with 150 μl of dH2O, and the open end of the tube was plugged with a cotton ball. The mosquitoes in their individual egg laying tubes were returned to rearing conditions for an additional 48 h, and the number of eggs laid was counted. Any mosquitoes that died during the 72 h period after blood feeding were excluded from the analysis.

An. gambiae = assay: mosquito fecundity, eggs laid; assay type: in vivo, Anopheles gambiae; conditions: 72 h post blood feeding; VU041 ~1 μg/mg, VU937 ~10 μg/mg
Procedure: Briefly, adult female mosquitoes were given access to an anesthetized mouse for 60 min. […] After treatment, individual female mosquitoes were transferred to Drosophila vials (Fisher Scientific, Pittsburgh, OA) containing 2 mL of water. The total number of eggs was counted 72 hours after each mosquito was transferred into a vial. Any mosquitoes that died during this 72-hour period were excluded from the analysis. All assays were performed in an environmental chamber that was maintained at 27° C. and 75% relative humidity; mosquitoes were given access to 10% sucrose solution ad libitum. At least 25 female mosquitoes were used per replicate for each treatment group; each treatment was repeated on three separate broods, giving a total number of individuals from 75-113 for each group.

Ae. aegypti [3] = assay: in vivo diuresis assay; design: species or system Aedes aegypti; conditions: topical, 1.7 μg/mg mosquito
Procedure: The K^+-PBS contained the following (in mM): 92.2 NaCl, 47.5 KCl, 10 Na2HPO4, and 2 KH2PO4 (pH 7.5). Each treatment group of 5 mosquitoes was transferred into a separate graduated, packed-cell volume tube (MidSci, St. Louis, Mo.) and held for 1 h at 28° C. The volume excreted by the mosquitoes was measured visually via the graduated column at the bottom of the tube. At least 8 replicates (5 mosquitoes per replicate) were performed for each treatment.

[4] = system: isolated tick salivary gland; assay: ion secretion in saliva of the isolated tick salivary gland; design: species or system Amblyomma americanum

Sequence of Kir1.1 (P48048 whole entry): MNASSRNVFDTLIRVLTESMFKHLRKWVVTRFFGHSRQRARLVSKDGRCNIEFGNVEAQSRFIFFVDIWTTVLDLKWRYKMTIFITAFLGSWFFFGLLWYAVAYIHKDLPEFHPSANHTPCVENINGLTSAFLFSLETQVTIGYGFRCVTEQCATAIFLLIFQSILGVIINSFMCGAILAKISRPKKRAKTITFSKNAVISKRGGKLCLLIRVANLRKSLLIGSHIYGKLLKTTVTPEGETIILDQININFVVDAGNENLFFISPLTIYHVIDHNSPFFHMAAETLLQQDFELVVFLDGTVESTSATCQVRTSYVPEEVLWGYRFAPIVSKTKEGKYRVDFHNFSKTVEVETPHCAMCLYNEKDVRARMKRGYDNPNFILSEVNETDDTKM

For O=C(Cn1nc(C(F)(F)F)c2c1CCCC2)N1CCCc2ccccc21 [VU041, 1-(3,4-dihydroquinolin-1(2H)-yl)-2-(3-(trifluoromethyl)-4,5,6,7-tetrahydro-1H-indazol-1-yl)ethan-1-one], the inhibition at 30 µM (Kir1.1; concentration of 30 μM) was less than 10%, the IC50 (Kir1.1; means (n = 3), read-out: IC50 μM (95% Cl)) was greater than 30 µM and the “mortality of adult honey bees” value [1] was “did not cause significant mortality; also recorded: not toxic”. For the same compound, the lethality against mosquitoes (mosquitoes) was roughly 100%, the “median number of eggs laid per mosquito” value (Ae. aegypti [2]) was “significantly lower median number of eggs per mosquito” and the “median number of eggs laid per mosquito” value (An. gambiae) was “significantly lower median number of eggs per mosquito”. The “lowering of diuretic capacity compared to controls” value (Ae. aegypti [3]) was roughly 51% and the “K+ and Na+ ion secretion rates in salivary droplets” value [4] was “significantly reduced”.
